Test results taken from US4374988A, “4-Heteroarylimidazo-[1,5-A]pyrimidines” (American Cyanamid Company, priority 1981, dated 1983).

Columns and labels:
[1] = system: rats; experiment: protection from pentylenetetrazole-induced clonic seizures in rats; type: in vivo, rat
Method: The anti-anxiety properties of the novel compounds of the invention have been established in a test which indicates anxiolytic activity by the measure of protection from convulsions resulting from the administration of pentylenetetrazole (sold as METROZOL, Reg. T.M.). Single or graded dosage levels of the test compounds were administered orally or intraperitoneally (in a 2% starch vehicle, containing 5% v/v polyethylene glycol and one to two drops of polysorbate 80) to groups of at least 4 rats. Thirty or 60 minutes after administration, the rats were treated intravenously with pentylenetetrazole at a dosage of 23 mg/kg. of body weight. This dose is estimated to cause clonic seizures in 99% of unprotected rats. A test compound is considered active if it protects 50% or more of the rats from clonic seizures. It has been reported (R. T. Hill and D. H. Tedeschi, "Animal Testing and Screening Procedures in Evaluating Psychotropic Drugs" in "An Introduction to Psychopharmacology", Eds. R. R. Rech and K. E. Moore, Raven Press, New York, pages 237-288 (1971)) that there is a high degree of correlation between antagonism of pentylenetetrazole seizures in rats and anti-anxiety effects in higher mammals.

[2] = system: rats; experiment: thirsty rat conflict test (non-conditioned passive avoidance); type: in vivo, rat (Wistar strain)
Text: Another test which has been employed to assess anti-anxiety effects is a non-conditioned passive avoidance procedure described by J. R. Vogel, B. Beer and D. E. Clody, "A Simple and Reliable Conflict Procedure for Testing Anti-Anxiety Agents", Psychopharmacologia, Vol. 21, pages 1-7 (1971). A conflict situation is induced in rats by a modification of this method. The test is referred to herein as the "thirsty rat conflict" test.
Groups of 8 naive, Wistar strain rats, weighing 200-240 g. each, were deprived of water for 48 hours. The test compounds were administered in single or graded, oral or intraperitoneal doses, suspended in distilled water and one drop of polysorbate 80. The control animals received the vehicle alone. After 30 or 60 minutes, each rat was placed in an individual clear plexiglass chamber. Tap water was available ad libitum from a nipple located in a black plexiglass box adjacent to the main chamber. A circuit carrying a 0.7 milliampere AC shocking current was established between the stainless steel grid floor of the chamber and the nipple. After 20 licks of non-shocked drinking, a fixed ratio of a 2-second "shock-on" and 19 licks "shock-off" cycle began and continued for a total of 3 minutes. The number of shocks taken by each rat during a 3-minute interval was recorded and compared to a control group.

[3] = system: brain-specific receptors; experiment: inhibition of 3H-benzodiazepine (3H-flunitrazepam) binding to brain-specific receptors; set-up: species or system rat (Wistar strain); details: 1 μM test compound (activity criterion), rat cortex P2 fraction, 0° C., 30 minutes

## N#Cc1ncn2c(-c3cccs3)ccnc12 [Example 1, 4-(2-Thienyl)imidazo[1,5-a]pyrimidine-8-carbonitrile]
[1]; intraperitoneal, 50 mg./kg., pentylenetetrazole 23 mg/kg i.v.
  resistance to convulsions induced by pentylenetetrazole: inactive
[2]; intraperitoneal, 25 mg/kg
  activity in the thirsty rat conflict test: active
[3]
  inhibition of 3H-benzodiazepine binding: 39%

## N#Cc1ncn2c(-c3ccsc3)ccnc12 [Example 2, 4-(3-Thienyl)imidazo[1,5-a]pyrimidine-8-carbonitrile]
[3]
  inhibition of 3H-benzodiazepine binding: 20%

## N#Cc1ncn2c(-c3cccnc3)ccnc12 [Example 5, 4-(3-Pyridyl)imidazo[1,5-a]pyrimidine-8-carbonitrile]
[1]; Rattus norvegicus, oral, dosage effective in 50% of the rats, pentylenetetrazole 23 mg/kg i.v., read-out: ED50, resistance to convulsions induced by pentylenetetrazole
  ED50: 6.8 mg/kg
[1]; general statement, oral or intraperitoneal, active if 50% or more of rats protected
  anxiolytic activity (protection from pentylenetetrazole convulsions): shown to possess anxiolytic activity
[1]; oral
  resistance to convulsions induced by pentylenetetrazole (in words): effective
[2]; general statement, oral or intraperitoneal, active if shocks significantly higher than control (Mann-Whitney U test)
  anxiolytic activity (thirsty rat conflict test): shown to possess anxiolytic activity
[2]; oral, 25 mg./kg.
  activity in the thirsty rat conflict test: active
[3]
  inhibition of 3H-benzodiazepine binding: 19%

## CCOC(=O)c1ncn2c(-c3cccnc3)ccnc12 [Example 15, Ethyl 4-(3-pyridyl)imidazo[1,5-a]pyrimidine-8-carboxylate]
[2]; oral, 25 mg./kg.
  activity in the thirsty rat conflict test: inactive
[3]
  inhibition of 3H-benzodiazepine binding: 49%
